Source: patent US20230086702A1, “SUBSTITUTED 2-AMINO-PYRAZOLYL-[1,2,4]TRIAZOLO[1,5A]PYRIDINE DERIVATIVES AND USE THEREOF” (The Johns Hopkins University, priority 2019, published 2023)

What was measured:
[1] = molecular target: T1, DLK (Homo sapiens, UniProt Q12852); test: DLK biochemical assay (TR-FRET, MKK7 phosphorylation); settings: DLK catalytic domain, MKK7 substrate, 60 μM ATP
T1 construct: 10 nM DLK, catalytic domain, Carna Biosiences; purchased Carna Biosciences ('Carna Biosiences' [sic])
T1 sequence (Q12852 125-366 limits assumed): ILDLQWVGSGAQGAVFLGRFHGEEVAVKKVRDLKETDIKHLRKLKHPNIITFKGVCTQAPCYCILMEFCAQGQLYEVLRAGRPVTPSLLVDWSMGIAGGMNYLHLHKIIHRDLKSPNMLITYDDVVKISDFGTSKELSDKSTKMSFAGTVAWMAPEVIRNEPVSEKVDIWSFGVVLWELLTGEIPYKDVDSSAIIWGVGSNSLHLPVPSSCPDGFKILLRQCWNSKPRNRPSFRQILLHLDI
Method in brief: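 TR-FRET read-out (ratio of 665 nm acceptor to Eu donor channel) tracks MKK7 T275/S277 phosphorylation by DLK, using Eu-labelled anti-phospho-MKK7 and XL665-labelled anti-His on His-MKK7. Reactions were stopped and detected in pH 7.5 Tris buffer containing 100 mM EDTA, 100 mM NaCl, 200 mM KF and 0.01% Tween 20.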

[2] = molecular target: T2, LZK (Homo sapiens, UniProt O43283); test: LZK biochemical assay (TR-FRET, MKK7 phosphorylation); settings: LZK catalytic domain, MKK7 substrate, 15 μM ATP
T2 construct: 10 nM LZK, catalytic domain, Carna Biosiences in assay buffer; purchased Carna Biosciences ('Carna Biosiences' [sic])
T2 sequence (O43283 168-409 limits assumed): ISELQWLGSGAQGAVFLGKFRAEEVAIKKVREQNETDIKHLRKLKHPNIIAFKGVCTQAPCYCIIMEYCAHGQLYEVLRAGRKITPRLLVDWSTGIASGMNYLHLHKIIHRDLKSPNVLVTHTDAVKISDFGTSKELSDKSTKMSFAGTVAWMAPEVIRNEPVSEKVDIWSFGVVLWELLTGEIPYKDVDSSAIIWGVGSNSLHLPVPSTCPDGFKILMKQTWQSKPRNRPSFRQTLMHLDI

Row | IC50 [1] [nM] | IC50 [2] [nM] | Structure (SMILES)
1 | 6.7 | 30 | CCC(c1ccc(OC(F)(F)F)nc1)n1cc(-c2cc(C(=O)N[C@@H](C)CO)c3nc(N)nn3c2)cn1 (single isomer, unassigned) [Example I-159]
2 | 51 | 540 | CC(C)C(c1ccc(F)cc1)n1cc(-c2cc(C(=O)N[C@@H](C)CO)c3nc(N)nn3c2)cn1 (single isomer, unassigned) [Example I-161]
3 | 1.3 | 83 | CC(C)[C@@H](c1ccc(F)cc1)n1cc(-c2cc(C(=O)N[C@@H](C)CO)c3nc(N)nn3c2)cn1 (single isomer, unassigned) [Example I-162]
4 | 6.3 | 52 | CC[C@@H](c1ccc(C(F)(F)F)nc1)n1cc(-c2cc(C(=O)NC(C)(C)CO)c3nc(N)nn3c2)cn1 (single isomer, unassigned) [Example I-164, 2-Amino-N-(1-hydroxy-2-methylpropan-2-yl)-6-(1-{1-[6-(trifluoromethyl)pyridin-3-yl]propyl}-1H-pyrazol-4-yl)[1,2,4]triazolo[1,5-a]pyridine-8-carboxamide]
5 | 64 | 190 | CCC(c1ccc(C(F)(F)F)nc1)n1cc(-c2cc(C(=O)NC(C)(C)CO)c3nc(N)nn3c2)cn1 (single isomer, unassigned) [Example I-165, 2-Amino-N-(1-hydroxy-2-methylpropan-2-yl)-6-(1-{1-[6-(trifluoromethyl)pyridin-3-yl]propyl}-1H-pyrazol-4-yl)[1,2,4]triazolo[1,5-a]pyridine-8-carboxamide]
6 | 22 | 85 | CC(C)(CO)NC(=O)c1cc(-c2cnn(C(c3ccc(C(F)(F)F)nc3)C3CCOCC3)c2)cn2nc(N)nc12 (single isomer, unassigned) [Example I-167, 2-Amino-N-(1-hydroxy-2-methylpropan-2-yl)-6-(1-{tetrahydro-2H-pyran-4-yl[6-(trifluoromethyl)pyridin-3-yl]methyl}-1H-pyrazol-4-yl)[1,2,4]triazolo[1,5-a]pyridine-8-carboxamide]
7 | 1.5 | 8.9 | CC(C)(CO)NC(=O)c1cc(-c2cnn(C(c3ccc(C(F)(F)F)nc3)C3CCOCC3)c2)cn2nc(N)nc12 (single isomer, unassigned) [Example I-168, 2-Amino-N-(1-hydroxy-2-methylpropan-2-yl)-6-(1-{tetrahydro-2H-pyran-4-yl[6-(trifluoromethyl)pyridin-3-yl]methyl}-1H-pyrazol-4-yl)[1,2,4]triazolo[1,5-a]pyridine-8-carboxamide]
8 | 5.5 | 18 | CC[C@@H](c1ccc(OC(F)(F)F)nc1)n1cc(-c2cc(C(=O)NC(C)(C)CO)c3nc(N)nn3c2)cn1 (single isomer, unassigned) [Example I-170, 2-Amino-N-(1-hydroxy-2-methylpropan-2-yl)-6-(1-{1-[6-(trifluoromethoxy)pyridin-3-yl]propyl}-1H-pyrazol-4-yl)[1,2,4]triazolo[1,5-a]pyridine-8-carboxamide]
9 | 85 | 150 | CCC(c1ccc(OC(F)(F)F)nc1)n1cc(-c2cc(C(=O)NC(C)(C)CO)c3nc(N)nn3c2)cn1 (single isomer, unassigned) [Example I-171, 2-Amino-N-(1-hydroxy-2-methylpropan-2-yl)-6-(1-{1-[6-(trifluoromethoxy)pyridin-3-yl]propyl}-1H-pyrazol-4-yl)[1,2,4]triazolo[1,5-a]pyridine-8-carboxamide]
10 | 2 | 49 | CC(C)C(c1cncc(Cl)c1)n1cc(-c2cc(C(=O)NC(C)(C)CO)c3nc(N)nn3c2)cn1 (single isomer, unassigned) [Example I-173, 2-Amino-6-{1-[1-(5-chloropyridin-3-yl)-2-methylpropyl]-1H-pyrazol-4-yl}-N-(1-hydroxy-2-methylpropan-2-yl)[1,2,4]triazolo[1,5-a]pyridine-8-carboxamide]
11 | 62 | 690 | CC(C)C(c1cncc(Cl)c1)n1cc(-c2cc(C(=O)NC(C)(C)CO)c3nc(N)nn3c2)cn1 (single isomer, unassigned) [Example I-174, 2-Amino-6-{1-[1-(5-chloropyridin-3-yl)-2-methylpropyl]-1H-pyrazol-4-yl}-N-(1-hydroxy-2-methylpropan-2-yl)[1,2,4]triazolo[1,5-a]pyridine-8-carboxamide]
12 | 3.8 | 150 | Nc1nc2c(C(=O)N[C@H]3CCOC3)cc(-c3cnn(Cc4cccc5cn[nH]c45)c3)cn2n1 (single isomer, unassigned) [Example I-175]
13 | 220 | 210 | Nc1nc2cc(-c3cnn(C4CCOCC4)c3)cc(C(=O)N[C@H]3CCOC3)n2n1 (single isomer, unassigned) [Example I-176]
14 | 17 | 64 | CCC(c1ccc(C(F)(F)F)nc1)n1cc(-c2cc(C(=O)N[C@H]3CCOC3)n3nc(N)nc3c2)cn1 (single isomer, unassigned) [Example I-178]
15 | 1.8 | 7.9 | CCC(c1ccc(C(F)(F)F)nc1)n1cc(-c2cc(C(=O)N[C@H]3CCOC3)n3nc(N)nc3c2)cn1 (single isomer, unassigned) [Example I-179]
16 | 2.1 | 14 | CC(C)C(c1ccc(C(F)(F)F)nc1)n1cc(-c2cc(C(=O)N[C@H]3CCOC3)n3nc(N)nc3c2)cn1 (single isomer, unassigned) [Example I-181]
17 | 0.3 | 1.2 | CC(C)C(c1ccc(C(F)(F)F)nc1)n1cc(-c2cc(C(=O)N[C@H]3CCOC3)n3nc(N)nc3c2)cn1 (single isomer, unassigned) [Example I-182]
18 | 13 | 22 | Nc1nc2cc(-c3cnn(C(c4ccc(C(F)(F)F)nc4)C4CCOCC4)c3)cc(C(=O)N[C@H]3CCOC3)n2n1 (single isomer, unassigned) [Example I-184]
19 | 0.8 | 2.3 | Nc1nc2cc(-c3cnn(C(c4ccc(C(F)(F)F)nc4)C4CCOCC4)c3)cc(C(=O)N[C@H]3CCOC3)n2n1 (single isomer, unassigned) [Example I-185]
20 | 0.8 | 18 | CCC(c1ccc(OCC(F)(F)F)nc1)n1cc(-c2cc(C(=O)N[C@H]3CCOC3)n3nc(N)nc3c2)cn1 (single isomer, unassigned) [Example I-187]
21 | 16 | 190 | CCC(c1ccc(OCC(F)(F)F)nc1)n1cc(-c2cc(C(=O)N[C@H]3CCOC3)n3nc(N)nc3c2)cn1 (single isomer, unassigned) [Example I-188]
22 | 97 | 83 | CC[C@H](C)NC(=O)c1cc(-c2cnn(CC3CC3)c2)cn2nc(N)nc12 [Example I-1]
23 | 36 | 74 | CC[C@H](C)NC(=O)c1cc(-c2cnn(C(CC#N)C(F)(F)F)c2)cc2nc(N)nn12 (stereo partly shown) [Example I-2]
24 | 66 | 12 | CC[C@H](C)NC(=O)c1cc(-c2cnn(C3CCC(F)(F)CC3)c2)cn2nc(N)nc12 [Example I-3]
25 | 84 | 26 | CC[C@H](C)NC(=O)c1cc(-c2cnn(C3CN(C)C3)c2)cn2nc(N)nc12 [Example I-4]
26 | 55 | 15 | CC[C@H](C)NC(=O)c1cc(-c2cnn(C3CN(Cc4ccccc4)C3)c2)cn2nc(N)nc12 [Example I-5]
